Assay results reported in US4210660A, “Benzamide derivatives” (Yamanouchi Pharmaceutical Co., Ltd., priority 1978, dated 1980).
Where two headings read alike, the source gives them in different places.

Tested on: apomorphine-induced stereotyped behavior
Test: Activity in reducing apomorphine-induced stereotyped behavior (method of Janssen et al.)
Assay type: in vivo, rats (male, Wistar)
Conditions: sc
Source text: In the following Experiment I, the compounds of this invention were compared with chlorpromazine which is a typical antipsychotic and other known structurally similar compounds in their activity in reducing apomorphine-induced stereotyped behavior.

[1] = test sample subcutaneous to rat, after 30 minutes 1.25 mg/kg apomorphine intravenously, observed 5, 10 and 20 minutes later, read-out: ED50

| Structure (SMILES) | ED50 [1] | ED50 (Rattus norvegicus) |
| --- | --- | --- |
| CNc1cc(OC)c(C(=O)NC2CCN(Cc3ccccc3)C2C)cc1Cl (stereo not shown) [Example 3, N-(1-benzyl-2-methylpyrrolidin-3-yl)-5-chloro-2-methoxy-4-methylaminobenzamide] | 0.01 mg/kg | – |
| CCN1CCCC1CNC(=O)c1cc(S(N)(=O)=O)ccc1OC (stereo not shown) [Sulpiride] | > 100 mg/kg | – |
| CCN1CCCC1CNC(=O)c1cc(S(=O)(=O)CC)ccc1OC (stereo not shown) [Sultopiride] | 18 mg/kg | – |
| CN(C)CCCN1c2ccccc2Sc2ccc(Cl)cc21 [Chlorpromazine] | – | 2.5 mg/kg |
